Data from patent US20220054447A1, “CANNABIS COMPOSITIONS AND METHODS” (priority 2018, published 2022).
Marks after values point to notes of the source that are not given here.

Legend:
[1] = cited from earlier work; for log P (octanol/water partition coefficient): United Nations Office on Drugs and Crime, 2009
[2] = 9-month stability of dried cannabis drug stored in a vault (not under nitrogen); type: physicochemical; design: Analyte content, Nov. 17, 2016: unit not given beside the values; details: for % Change from Day 0: 9-month storage, <0.05 assumed to be 0.05 for calculation; for Analyte content, Aug. 10, 2017 / Analyte content, Nov. 17, 2016: dried cannabis drug stored in a vault, not under nitrogen; for Analyte content, Aug. 10, 2017: 9 months; for Analyte content, Nov. 17, 2016: Day 0
Description: A schematic depicting the production of exemplary cannabinoic acids and subsequent transformation to the related neutral form by conditions such as oxidation, heat and time is shown in FIG. 3.

[3] = Dose uniformity of pellets; type: physicochemical
Description: The dose uniformity studies show improvement subsequent to optimization of the blending process. […] After optimizing the process, the dose uniformity for clinical batches was 5.59% and 5.13% for THC and THCA, respectively.

[4] = Phase 1 clinical batch, before optimization of blending
[5] = clinical batches after optimizing the process

Compound	log P (octanol/water partition coefficient) [1]	Solubility in ethanol [1]	Solubility in water [1]	% Change from Day 0 [2]	Analyte content, Aug. 10, 2017 [2]	Analyte content, Nov. 17, 2016 [2]	Dose uniformity, % variability [3, 4]	Dose uniformity, % variability [3, 5]	Stability ([1]; pure THC, Mechoulam 1970, NIH 1996)
C=C(C)[C@@H]1CCC(C)=C[C@H]1c1c(O)cc(CCCCC)cc1O [CBD, cannabidiol, reference compound]	5.79	soluble in ethanol	not soluble in water	1260%	0.68	<0.05*	–	–	–
C=C(C)[C@@H]1CCC(C)=C[C@H]1c1c(O)cc(CCCCC)c(C(=O)O)c1O [CBDA, cannabidiolic acid]	–	–	–	33.9%	2.03	3.07	–	–	–
CCCCCc1cc(O)c(C/C=C(\C)CCC=C(C)C)c(O)c1 [CBG, cannabigerol]	–	–	–	140%	0.12	<0.05*	–	–	–
CCCCCc1cc(O)c(C/C=C(\C)CCC=C(C)C)c(O)c1C(=O)O [CBGA, cannabigerolic acid]	–	–	–	–	0.26	0.37	–	–	–
CCCCCc1cc(O)c2c(c1)OC(C)(C)[C@@H]1CCC(C)=C[C@@H]21 [THC, tetrahydrocannabinol, reference compound]	6.99	–	–	733%	1.75	0.21	12.82%	5.59%	unstable in air, light, and at high temperatures
CCCCCc1cc2c(c(O)c1C(=O)O)[C@@H]1C=C(C)CC[C@H]1C(C)(C)O2 [THCA, tetrahydrocannabinolic acid]	–	–	–	–	6.02	9.68	15.07%	5.13%	–
